“And” between values parts separate entries of the source, which are not always exact repeats. Identical values can stand only once.
Experiment: in-vitro planometry/profilometry test of enamel erosion by acidic solutions and beverages
Design: species or system human
Protocol: Test solutions were prepared by dissolving the ingredients in water as described in the Table. For test solutions containing sodium polyphosphate, the average chain length (n) of the polyphosphate polymer used was 17. All solutions were prepared to give a pH of 3.0 and a titratable acidity of 0.5% w/v CAMH (citric acid monohydrate). Where calcium was added, the molar ratio of calcium: citric acid used was about 0.08. The erosive effect of the solutions was evaluated using in-vitro planometry tests in which flat dental enamel sections were exposed to test solutions at a temperature of 37° C. for 4 hours. […] Erosive effect was evaluated by physical measurement of the depth of enamel (in microns) lost during the procedure.
A. Solutions were prepared containing approximately equivalent molar concentrations of phosphate groups dissolved in 0.3% w/v citric acid monohydrate (CAMH), pH 3.4. pH was adjusted by the addition of NaOH as required. […] Additionally sodium polyphosphate n≈4, 7, 28 was from Chemische Fabrik Budenheim, Budenheim, Germany, and sodium polyphosphate n≈12, 21, 25 was from Rhodia Ltd. Widnes, Cheshire, UK. Enamel specimens were placed in the solutions with stirring at 37 C for 4 hours and the amount of enamel lost from the surface during that time measured by profilometry as described previously.
The acidulant employed was 0.3% w/v citric acid monohydrate. Citric acid is one of the most commonly employed food acidulants. Adjustment of pH where required was achieved by the addition of NaOH.

O=C([O-])[O-].[Ca+2] [Ca, calcium carbonate]
4 Hr Enamel Loss (Ca 80 ppm alone, no phosphate salt, no gum, 0.5% w/v CAMH, pH 3.0): 41.1 microns and 80 microns
4 Hr Enamel Loss (Ca 80 ppm alone, no phosphate salt, 0.3% w/v CAMH, pH 3.4): 42.8 microns
4 Hr Enamel Loss (Ca 100 ppm alone, no polyphosphate, 0.3% w/v CAMH, pH 3.2): 31.5 microns
4 Hr Enamel Loss (Ca 200 ppm alone, no polyphosphate, 0.3% w/v CAMH, pH 3.2): 25.2 microns

O=P([O-])([O-])OP(=O)([O-])OP(=O)([O-])[O-].[Na+].[Na+].[Na+].[Na+].[Na+] [Penta-sodium triphosphate]
4 Hr Enamel Loss (phosphate salt 0.61 g/L, Ca 80 ppm, 0.5% w/v CAMH, pH 3.0, listed as Penta sodium triphosphate, triphosphate): 20.09 microns
4 Hr Enamel Loss (phosphate salt 0.61 g/L, Ca 80 ppm, 0.5% w/v CAMH, pH 3.0, listed as sodium tri-phosphate, triphosphate): about 20 microns
4 Hr Enamel Loss (phosphate salt 0.61 g/L, Ca 80 ppm, 0.5% w/v CAMH, pH 3.0, triphosphate): 20.1 microns
4 Hr Enamel Loss (phosphate salt 0.61 g/L, no Ca, 0.3% w/v CAMH, pH 3.4): 29.6 microns

O=P(O)(O)O [Sodium phosphate]
4 Hr Enamel Loss (phosphate salt 0.65 g/L, Ca 80 ppm, 0.5% w/v CAMH, pH 3.0): 33.4 microns and 33.39 microns
4 Hr Enamel Loss (phosphate salt 0.65 g/L, Ca 80 ppm, 0.5% w/v CAMH, pH 3.0, listed as sodium phosphate): about 33 microns
4 Hr Enamel Loss (phosphate salt 0.65 g/L, no Ca, 0.3% w/v CAMH, pH 3.4): 34.05 microns

O=P([O-])([O-])OP(=O)([O-])[O-].[Na+].[Na+].[Na+].[Na+] [Tetra-sodium pyrophosphate]
4 Hr Enamel Loss (phosphate salt 1.08 g/L, Ca 80 ppm, 0.5% w/v CAMH, pH 3.0): 28.6 microns
4 Hr Enamel Loss (phosphate salt 1.08 g/L, Ca 80 ppm, 0.5% w/v CAMH, pH 3.0, listed as Tetra sodium pyrophosphate): 28.63 microns
4 Hr Enamel Loss (phosphate salt 1.08 g/L, Ca 80 ppm, 0.5% w/v CAMH, pH 3.0, listed as sodium pyrophosphate): about 29 microns
4 Hr Enamel Loss (phosphate salt 1.08 g/L, no Ca, 0.3% w/v CAMH, pH 3.4): 34.9 microns
